From patent US20140178902A1, “METHOD FOR DETECTING INFECTIONS” (priority 2011, published 2014)

Columns and labels:
rabbit Anti-FusC = assay: Protein immunoblot of gold nanoparticle conjugates; format: binding; conditions: serial dilutions
Method: Confirmation of conjugate formation was performed using a protein immunoblot. 4 μl of AuNP-FsC-BSA, Au-BSA and FusC-BSA samples were spotted onto a nitrocellulose membrane strip in serial dilutions (A-E) prepared in 2 mM borate (pH 9.0). Spots were allowed to dry before the strip was blocked for 30 min in Marvel (5% (w/v) in PBS). Membranes were then incubated for 30 min with primary antibody (rabbit Anti-FusC), diluted using blocking buffer (1/1000). Nitrocellulose blots were subsequently washed (2×5 min) in blocking solution and then incubated with a 1/1000 dilution of anti-rabbit IgG peroxidase-conjugated secondary antibody (Sigma-Aldrich), shaking for 30 min at room temperature. The nitrocellulose membranes were then washed extensively (2×5 min) in blocking solution and rinsed (2×5 min) with PBS. Immunoreactive samples were visualized using Pierce ECL Chemiluminescent Substrate (Fischer Scientific) for the detection of horseradish peroxidase.

[1] = system: antibody (anti-PSC1A, rabbit antisera); assay: Competitive ELISA: free FusC against antibody recognition of conjugate PSC2A; format: binding; conditions: Free FusC 6.5 μg/ml
Method: FIG. 5: Competitive ELISA detection of TAFC and FusC. A. Immobilised antigen was an equimolar combination of PSC2B and PSC3B (acetylated & non-acetylated cBSA-SMCC-FusC^Fe3+), coated at 2.5 μg/ml (250 ng/well). Murine antisera was used (1/1000) which was raised against KLH-sHSAB-ih/cTAFC(PSC1A & PSC1B); Competition antigens were either FusC or cTAFC (0-20 μg/ml, respectively). B. FusC detection by ELISA. Free FusC 6.5 μg/ml prevents antibody (anti-PSC1A, rabbit antisera) recognition of conjugate PSC2A (cBSA-SATA-SMCC-FusC).
Microtitre plates (Nunc Maxisorp™ available from Nunc A/S, Roskilde, Denmark) were coated with either FusC (range used for optimisation: 0-66 μg/ml) or an equimolar combination of PSC2B/PSC3B conjugates (range used for optimisation: 0-10 μg/ml) in 50 mM sodium carbonate pH 9.4 for 16 hr (100 μl/well). […] Finally the absorbance was measured at 450/620 nm using a Synergy plate reader and standard curves of A450/620 nm versus log FusC concentration (0-100 μg/ml (or 0-20 μg/ml TAFC) constructed, from which the concentration of FusC in normal clinical specimens, of animal and human origin, was computed.
For example, it was observed that FusC or TAFC, respectively, could be detected by ELISA using murine antisera [anti-KLH-sHSAB-ihTAFC or cTAFC] […]

Which “reactivity in immunoblot with rabbit Anti-FusC” value (rabbit Anti-FusC) does the source give for “BSA-AuNP: negative control BSA gold nanoparticle conjugate” here?
The value was “No reactivity is visible”.

For C/C1=C/C(=O)N(O)CCCC(N)C(=O)OCC/C(C)=C\C(=O)N(O)CCCC(N)C(=O)OCC/C(C)=C\C(=O)N(O)CCCC(N)C(=O)OCC1 (centres unmarked) [FusC, fusarinine C], which “antibody recognition of conjugate PSC2A (cBSA-SATA-SMCC-FusC)” value [1] is on record?
The value was “prevents”.
